Measurements published in patent US11046680B1, “Heteroaryl-substituted triazoles as APJ receptor agonists” (priority 2016, dated 2021).

Biological target: human APJ receptor (Homo sapiens (Human), UniProt P35414)
Experiment: biochemical
Assay type: biochemical
Conditions: [35S]GTPγS binding, CHO membranes expressing human APJ receptor; read-out: Activity hAPJ SPA EC50 IP
How it was run: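 GTPγS binding on membranes from CHO cells stably expressing FLAG-tagged human APJ, with optimized GDP, MgCl2 and NaCl; incubated 90 min at RT before imaging read-out.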

Chain of human APJ receptor (P35414 whole entry): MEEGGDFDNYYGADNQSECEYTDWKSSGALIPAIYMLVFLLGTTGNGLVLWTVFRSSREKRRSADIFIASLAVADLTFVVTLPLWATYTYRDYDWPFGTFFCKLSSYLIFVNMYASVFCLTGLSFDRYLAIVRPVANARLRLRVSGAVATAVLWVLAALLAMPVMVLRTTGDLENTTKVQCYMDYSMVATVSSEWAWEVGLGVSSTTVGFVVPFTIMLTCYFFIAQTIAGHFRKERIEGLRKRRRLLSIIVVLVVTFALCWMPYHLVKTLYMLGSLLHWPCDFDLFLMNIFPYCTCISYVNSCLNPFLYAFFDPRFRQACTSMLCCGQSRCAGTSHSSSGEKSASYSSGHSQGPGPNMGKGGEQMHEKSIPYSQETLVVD

| SMILES | EC50 |
| --- | --- |
| COc1cccc(OC)c1-n1c(NS(=O)(=O)[C@@H](C)[C@H](O)c2ncc(C)cn2)nnc1-c1cc2n(n1)CCC2 [Example 220.0, (1R,2S)-N-(5-(5,6-dihydro-4H-pyrrolo[1,2-b]pyrazol-2-yl)-4-(2,6-dimethoxyphenyl)-4H-1,2,4-triazol-3-yl)-1-hydroxy-1-(5-methyl-2-pyrimidinyl)-2-propanesulfonamide] | 6.6 nM |
| COc1cccc(OC)c1-n1c(NS(=O)(=O)[C@@H](C)[C@H](C)c2ncc(Cl)cn2)nnc1-c1cc2n(n1)CCC2 [Example 221.0, (2S,3R)-3-(5-chloro-2-pyrimidinyl)-N-(5-(5,6-dihydro-4H-pyrrolo[1,2-b]pyrazol-2-yl)-4-(2,6-dimethoxyphenyl)-4H-1,2,4-triazol-3-yl)-2-butanesulfonamide] | 0.32 nM |
| COc1cccc(OC)c1-n1c(NS(=O)(=O)[C@@H](C)[C@H](C)c2ncc(Cl)cn2)nnc1-c1ccn(C(F)F)n1 [Example 222.0, (2S,3R)-3-(5-chloro-2-pyrimidinyl)-N-(5-(1-(difluoromethyl)-1H-pyrazol-3-yl)-4-(2,6-dimethoxyphenyl)-4H-1,2,4-triazol-3-yl)-2-butanesulfonamide] | 0.11 nM |
| COc1cccc(OC)c1-n1c(NS(=O)(=O)[C@@H](C)[C@H](OC)c2cnc(C)cn2)nnc1-c1ccn(C(F)F)n1 [Example 223.0, (1R,2S)-N-(5-(1-(difluoromethyl)-1H-pyrazol-3-yl)-4-(2,6-dimethoxyphenyl)-4H-1,2,4-triazol-3-yl)-1-methoxy-1-(5-methyl-2-pyrazinyl)-2-propanesulfonamide] | 2.9 nM |
| COc1cccc(OC)c1-n1c(NS(=O)(=O)[C@@H](C)[C@H](C)c2ncc(C#N)cn2)nnc1-c1ccn(C(F)F)n1 [Example 224.0, (2S,3R)-3-(5-cyano-2-pyrimidinyl)-N-(5-(1-(difluoromethyl)-1H-pyrazol-3-yl)-4-(2,6-dimethoxyphenyl)-4H-1,2,4-triazol-3-yl)-2-butanesulfonamide] | 0.41 nM |
| COc1cccc(OC)c1-n1c(NS(=O)(=O)[C@@H](C)[C@H](C)c2ncc(C#N)cn2)nnc1-c1cc2n(n1)CCC2 [Example 225.0] | 2 nM |
| Cc1cnc([C@@H](C)[C@H](C)S(=O)(=O)Nc2nnc(-c3ccn(C)n3)n2-c2c(F)cccc2F)nc1 [Example 226.0, (2S,3R)-N-(4-(2,6-difluorophenyl)-5-(1-methyl-1H-pyrazol-3-yl)-4H-1,2,4-triazol-3-yl)-3-(5-methyl-2-pyrimidinyl)-2-butanesulfonamide] | 11 nM |
| Cc1cnc([C@H](OC(C)C)[C@H](C)S(=O)(=O)Nc2nnc(-c3ccn(C)n3)n2-c2c(F)cccc2F)nc1 [Example 227.0, (1S,2S)-N-(4-(2,6-difluorophenyl)-5-(1-methyl-1H-pyrazol-3-yl)-4H-1,2,4-triazol-3-yl)-1-(1-methylethoxy)-1-(5-methyl-2-pyrimidinyl)-2-propanesulfonamide] | 1.6 nM |
| C[C@H](c1ncc(Cl)cn1)[C@H](C)S(=O)(=O)Nc1nnc(-c2ccn(C)n2)n1-c1c(F)cccc1F [Example 228.0, (2S,3R)-3-(5-chloro-2-pyrimidinyl)-N-(4-(2,6-difluorophenyl)-5-(1-methyl-1H-pyrazol-3-yl)-4H-1,2,4-triazol-3-yl)-2-butanesulfonamide] | 4 nM |
| CO[C@H](c1ncc(Cl)cn1)[C@H](C)S(=O)(=O)Nc1nnc(-c2ccn(C)n2)n1-c1c(F)cccc1F [Example 229.0, (1R,2S)-1-(5-chloro-2-pyrimidinyl)-N-(4-(2,6-difluorophenyl)-5-(1-methyl-1H-pyrazol-3-yl)-4H-1,2,4-triazol-3-yl)-1-methoxy-2-propanesulfonamide] | 3.1 nM |
| COc1cnc([C@@H](C)[C@H](C)S(=O)(=O)Nc2nnc(-c3ccn(C)n3)n2-c2c(F)cccc2F)cn1 [Example 230.0, (2S,3R)-N-(4-(2,6-difluorophenyl)-5-(1-methyl-1H-pyrazol-3-yl)-4H-1,2,4-triazol-3-yl)-3-(5-methoxy-2-pyrazinyl)-2-butanesulfonamide] | 25 nM |
